# Test results: patent US7939546B2, “Quinoline derivatives for modulating DNA methylation” (SuperGen, Inc., priority 2007, dated 2011)
# Several values for one entry are separate records, joined by “and”; a condition that tells them apart may be missing. Equal values may be shown once. Where a name gives a salt, the structure may show the parent alone.
# Legend:
# CMV-EE210 cell line = assay: Toxicity (TD50, cell viability) reported with the GFP assay; details: Dose at which cells are >50% viable
# Experimental: The demethylating activity of non-bis-quaternary 4-anilinoquinolines were tested in a cell-based GFP (green fluorescent protein) assay. This assay has a GFP gene regulated by the CMV promoter and is sensitive to the methylation of CpG sites within the promoter. A decrease in methylation resulting from exposure to a methylation inhibitor leads to GFP expression and is readily scored. Specifically, the CMV-EE210 cell line containing the epigenetically silenced GFP transgene was used to assay for reactivation of GFP expression by flow cytometry. CMV-EE210 was made by transfecting NIH 3T3 cells with the pTR-UF/UF1/UF2 plasmid (Zolotuhin et al., 1996), which is comprised of pBS(+) (Stratagene, Inc.) containing a cytomegalovirus (CMV) promoter driving a humanized GFP gene adapted for expression in mammalian cells. After transfection, high-level GFP expressing cells were initially selected by FACS analysis and sorting using a MoFlo cytometer (Cytomation, Inc.). […] To screen for reactivation of CMV-EE210, decitabine (at […]) or a test compound (at a concentration of 30-50 μM) was added to complete medium (phenol red free DMEM (Gibco, Life Technologies) supplemented with 10% fetal bovine serum (Hyclone)). Cells were then seeded to 30% confluence (˜5000 cell/well) in 96 well plate containing the test compounds and grown for three days in at 37° C. in 5% CO2. The plates were examined under a fluorescent microscope using a 450-490 excitation filter (13 filter cube, Leica, Deerfield Ill.). Wells were scored g1 positive if 10% of viable cells express GFP, g2 positive if 30% of viable cells express GFP and g3 if greater than 75% of the viable cells express GFP. GFP IC 50 is the concentration of an inhibitor that (like an IC50) is the dose at which the GFP expression level goes from g3 to g1/2.
# DNMT1 = DNMT1 (Homo sapiens, UniProt P26358); assay: Selective depletion of DNMT1 by Western blot in treated HCT116 cells; format: cell-based; set-up: Protein extracts (equivalent to 100 μg) were isolated from HCT116 cells; endogenous in cells; host or cells: HCT116; details: for % DNMT1 protein level remaining at 5 µM: HCT-116, 5 μM; for % DNMT1 protein level remaining at 10 µM: HCT-116, 10 μM; for % DNMT1 protein level remaining at 100 µM: HCT-116, 100 μM
# Chain of DNMT1 (P26358 whole entry): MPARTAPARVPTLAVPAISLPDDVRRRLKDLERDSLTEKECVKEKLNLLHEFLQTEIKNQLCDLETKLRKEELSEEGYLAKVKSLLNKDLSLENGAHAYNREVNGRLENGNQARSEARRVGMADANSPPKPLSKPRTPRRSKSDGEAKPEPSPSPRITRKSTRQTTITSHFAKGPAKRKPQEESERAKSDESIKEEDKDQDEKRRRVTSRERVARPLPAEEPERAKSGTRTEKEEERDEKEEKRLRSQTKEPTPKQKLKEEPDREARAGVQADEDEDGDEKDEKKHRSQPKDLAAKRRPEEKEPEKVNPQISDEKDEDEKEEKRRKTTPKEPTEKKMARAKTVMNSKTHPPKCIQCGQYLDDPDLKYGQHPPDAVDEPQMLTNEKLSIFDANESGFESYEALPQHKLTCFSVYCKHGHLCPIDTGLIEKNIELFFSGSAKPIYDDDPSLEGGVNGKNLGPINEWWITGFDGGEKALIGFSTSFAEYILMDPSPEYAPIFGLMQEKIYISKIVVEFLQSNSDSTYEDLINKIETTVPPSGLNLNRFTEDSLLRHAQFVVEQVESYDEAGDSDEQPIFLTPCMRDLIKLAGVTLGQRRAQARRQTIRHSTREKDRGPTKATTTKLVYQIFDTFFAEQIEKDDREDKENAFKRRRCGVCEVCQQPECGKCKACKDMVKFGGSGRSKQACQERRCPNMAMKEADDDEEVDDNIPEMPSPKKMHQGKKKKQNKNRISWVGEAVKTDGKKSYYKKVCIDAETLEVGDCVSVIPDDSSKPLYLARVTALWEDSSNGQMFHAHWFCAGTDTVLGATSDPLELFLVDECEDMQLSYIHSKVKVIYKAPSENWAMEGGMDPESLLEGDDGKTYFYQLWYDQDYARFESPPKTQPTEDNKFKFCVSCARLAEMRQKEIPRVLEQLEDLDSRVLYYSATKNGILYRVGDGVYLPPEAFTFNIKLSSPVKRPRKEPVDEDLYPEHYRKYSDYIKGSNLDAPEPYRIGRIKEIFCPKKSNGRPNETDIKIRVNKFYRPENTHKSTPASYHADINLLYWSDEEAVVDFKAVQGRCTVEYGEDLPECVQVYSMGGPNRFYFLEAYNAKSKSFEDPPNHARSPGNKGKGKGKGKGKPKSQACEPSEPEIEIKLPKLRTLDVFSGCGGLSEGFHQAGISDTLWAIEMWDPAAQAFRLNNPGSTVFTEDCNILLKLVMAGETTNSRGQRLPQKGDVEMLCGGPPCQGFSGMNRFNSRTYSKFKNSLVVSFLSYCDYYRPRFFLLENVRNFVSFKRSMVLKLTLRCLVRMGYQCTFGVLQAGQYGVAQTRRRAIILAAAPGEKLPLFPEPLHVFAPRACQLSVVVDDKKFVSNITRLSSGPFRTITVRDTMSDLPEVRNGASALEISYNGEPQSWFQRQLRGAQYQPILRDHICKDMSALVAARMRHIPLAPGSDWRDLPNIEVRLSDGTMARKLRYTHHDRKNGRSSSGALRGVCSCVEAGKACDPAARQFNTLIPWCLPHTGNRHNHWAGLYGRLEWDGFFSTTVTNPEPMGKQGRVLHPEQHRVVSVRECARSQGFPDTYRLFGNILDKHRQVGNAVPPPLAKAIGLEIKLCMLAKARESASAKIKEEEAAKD
# Text: Biol. 2005, 11, 4727-41.]. For DNMT1, commercially available antibodies from Santa Cruz or New England Biolabs were used.
Compound,% DNMT1 protein level remaining at 5 µM (DNMT1),% DNMT1 protein level remaining at 10 µM (DNMT1),melting point,also measured
"C/C(=N\N=C(N)N)c1ccc(NC(=O)c2ccc(Nc3ccnc4ccc([N+](=O)[O-])cc34)cc2)cc1 [Cpd. I, (E)-N-[4-{1-([diaminomethylene]hydrazono)ethyl}phenyl]-4-(6-nitroquinolin-4-ylamino)benzamide hydrochloride]",27%,80%,–,TD50 (CMV-EE210 cell line): 25 µM; % DNMT1 protein level remaining at 100 µM (DNMT1): 48%
1-methyl-4-[4-(4-{7-nitroquinolin-4-ylamino}benzamido)-phenylamino]pyridinium dichloride [Cpd. S],–,–,–,TD50 (CMV-EE210 cell line): 25 µM; % DNMT1 Level (DNMT1; 5 μM): 87%; % DNMT1 Level (DNMT1; 10 μM): 101%; % DNMT1 Level (DNMT1; 100 μM): 69%
"Cc1cc(Nc2ccc(NC(=O)c3ccc(Nc4ccnc5c(F)c(F)c(F)cc45)cc3)cc2)nc(N)n1 (as salt: hydrochloride) [Cpd. KK, n-[4-(2-amino-6-methylpyrimidin-4-ylamino)phenyl]-4-(6,7,8-trifluoroquinolin-4-ylamino)benzamide dihydrochloride]",–,–,> 280 °C,–
"Cc1cc(Nc2ccc(NC(=O)c3ccc(Nc4ccnc5ccc(Cl)cc45)cc3)cc2)nc(N)n1 [Cpd. LL, N-[4-(2-amino-6-methylpyrimidin-4-ylamino)phenyl]-4-(6-chloroquinolin-4-ylamino)benzamide]",70%,15%,250 to 254 °C,–
"C[n+]1ccc(Nc2cccc(NC(=O)c3ccc(Nc4ccnc5cc([N+](=O)[O-])ccc45)cc3)c2)cc1 [Cpd. R, 1-methyl-4-[3-({4-[(7-nitro-4-quinolinyl)amino]benzoyl}amino)anilino]pyridinium chloride]",160%,170%,–,TD50 (CMV-EE210 cell line): 25 µM; % DNMT1 protein level remaining at 100 µM (DNMT1): 165%
"C/C(=N\N=C(N)N)c1cccc(C(=O)Nc2ccc(Nc3ccnc4ccc(N(C)C)cc34)cc2)c1 (as salt: chloride) [Cpd. QQ, 4-[4-({3-[(1E)-N-(diaminomethylene)ethanehydrazonoyl]-benzoyl}amino)anilino]-6-(dimethylamino)quinolinium chloride]",–,–,> 280 °C,–
"Cc1cc(Nc2ccc(C(=O)Nc3ccc(Nc4ccnc5ccc(N)cc45)cc3)cc2)nc(N)n1 (as salt: hydrochloride) [Cpd. GG3, 4-[(2-amino-6-methyl-4-pyrimidinyl)amino]-N-{4-[(6-amino-4-quinolinyl)amino]phenyl}benzamide dihydrochloride]",–,–,> 300 °C,–
"CN(C)c1ccc2nccc(Nc3ccc(NC(=O)c4cccc(Nc5cc[n+](C)cc5)c4)cc3)c2c1 [Cpd. OO1, 6-(dimethylamino)-4-[4-({3-[(1-methyl-4-pyridiniumyl)amino]benzoyl}amino)anilino]-quinolinium dichloride]",25%,15%,170 to 173 °C,–
"Cc1cc(Nc2ccc(NC(=O)c3ccc(Nc4ccnc5ccc([N+](=O)[O-])cc45)cc3)cc2)nc(N)n1 (as salt: hydrochloride) [Cpd. H, N-(4-(2-amino-6-methylpyrimidin-4-ylamino)phenyl)-4-(6-nitroquinolin-4-ylamino)benzamide hydrochloride]",–,–,301 to 305 °C,–
"C[n+]1ccc(Nc2ccc(C(=O)Nc3ccc(Nc4ccnc5ccc(N)cc45)cc3)cc2)cc1 (as salt: chloride) [Cpd. N, 4-[4-({4-[(6-amino-4-quinolinyl)amino]anilino}carbonyl)anilino]-1-methylpyridinium chloride]",–,–,> 300 °C,–
"Cc1cc(Nc2cccc(C(=O)Nc3ccc(Nc4ccnc5ccccc45)cc3)c2)nc(N)n1 (as salt: hydrochloride) [Cpd. FF1, 3-[(2-amino-6-methyl-4-pyrimidinyl)amino]-N-[4-(4-quinolinylamino)phenyl]benzamide dihydrochloride]",–,–,> 300 °C,–
"Cc1cc(Nc2ccc(NC(=O)c3ccc(Nc4ccnc5ccc([N+](=O)[O-])cc45)cc3)cc2)nc(N)n1 [Cpd. H, N-(4-(2-amino-6-methylpyrimidin-4-ylamino)phenyl)-4-(6-nitroquinolin-4-ylamino)benzamide hydrochloride]",132%,25%,–,TD50 (CMV-EE210 cell line): 12.5 µM; % DNMT1 protein level remaining at 100 µM (DNMT1): 24%
"C[n+]1ccc(Nc2cccc(NC(=O)c3ccc(Nc4ccnc5ccccc45)cc3)c2)cc1 (as salt: chloride) [Cpd. A, 1-methyl-4-(3-{[4-(4-quinolinylamino)benzoyl]amino}anilino)pyridinium chloride]",–,–,253 to 257 °C,–
"C[n+]1ccc(Nc2cccc(NC(=O)c3ccc(Nc4ccnc5ccccc45)cc3)c2)cc1 [Cpd. A, 1-methyl-4-(3-{[4-(4-quinolinylamino)benzoyl]amino}anilino)pyridinium chloride]",99%,117%,–,TD50 (CMV-EE210 cell line): 12.5 µM; % DNMT1 protein level remaining at 100 µM (DNMT1): 119%
"Cc1cc(Nc2ccc(NC(=O)c3ccc(Nc4ccnc5cc(N(C)C)ccc45)cc3)cc2)nc(N)n1 (as salt: hydrochloride) [Cpd. BB, N-[4-(2-amino-6-methylpyrimidin-4-ylamino)phenyl]-4-(7-(dimethylamino)quinolin-4-ylamino)benzamide hydrochloride]",–,–,272 to 275 °C,–
"C[n+]1ccc(Nc2ccc(NC(=O)c3ccc(Nc4ccnc5cc(N)ccc45)cc3)cc2)cc1 [Cpd. W, 1-methyl-4-[4-(4-{7-aminoquinolin-4-ylamino}benzamido)-phenylamino]pyridinium dichloride]",45%,75%,242 to 245 °C,–
"CN(C)c1ccc2c(Nc3ccc(NC(=O)c4ccc(Nc5cc[n+](C)cc5)cc4)cc3)ccnc2c1.Cl.[Cl-] [Cpd. DD, 7-(dimethylamino)-4-[4-({4-[(1-methyl-4-pyridiniumyl)amino]benzoyl}amino)aniline]quinolinium dichloride]",–,–,–,TD50 (CMV-EE210 cell line): 25 µM; % DNMT1 Level (DNMT1; 5 μM): 90%; % DNMT1 Level (DNMT1; 10 μM): 74%; % DNMT1 Level (DNMT1; 100 μM): 52%
"Cc1cc(Nc2ccc(C(=O)Nc3ccc(Nc4ccnc5cc([N+](=O)[O-])ccc45)cc3)cc2)nc(N)n1 (as salt: hydrochloride) [Cpd. GG5, 4-[(2-Amino-6-methyl-4-pyrimidinyl)amino]-N-{4-[(7-nitro-4-quinolinyl)amino]phenyl}benzamide dihydrochloride]",–,–,> 300 °C,–
"Cc1cc(Nc2ccc(C(=O)Nc3ccc(Nc4ccnc5cc(N)ccc45)cc3)cc2)nc(N)n1 (as salt: hydrochloride) [Cpd. GG2, 4-[(2-Amino-6-methyl-4-pyrimidinyl)amino]-N-{4-[(7-amino-4-quinolinyl)amino]phenyl}benzamide dihydrochloride]",–,–,257 to 262 °C and 257 to 261 °C,–
"C[n+]1ccc(Nc2cccc(NC(=O)c3ccc(Nc4ccnc5cc([N+](=O)[O-])ccc45)cc3)c2)cc1 (as salt: chloride) [Cpd. R, 1-methyl-4-[3-({4-[(7-nitro-4-quinolinyl)amino]benzoyl}amino)anilino]pyridinium chloride]",–,–,303 °C (dec.),–
"CN(C)c1ccc2nccc(Nc3ccc(NC(=O)c4ccc(Nc5cc[n+](C)cc5)cc4)cc3)c2c1 [Cpd. OO2, 6-(Dimethylamino)-4-[4-({4-[(1-methyl-4-pyridiniumyl)amino]benzoyl}amino)-anilino]quinolinium dichloride]",50%,95%,156 °C (dec.),–
"Cc1cc(Nc2ccc(C(=O)Nc3ccc(Nc4ccnc5ccc([N+](=O)[O-])cc45)cc3)cc2)nc(N)n1 (as salt: hydrochloride) [Cpd. GG4, 4-[(2-Amino-6-methyl-4-pyrimidinyl)amino]-N-{4-[(6-nitro-4-quinolinyl)amino]phenyl}benzamide dihydrochloride]",–,–,295 to 300 °C,–
"Cc1cc(Nc2cccc(C(=O)Nc3ccc(Nc4ccnc5ccc([N+](=O)[O-])cc45)cc3)c2)nc(N)n1 (as salt: hydrochloride) [RR2, 3-[(2-amino-6-methyl-4-pyrimidinyl)amino]-N-{4-[(6-nitro-4-quinolinyl)amino]phenyl}benzamide dihydrochloride]",–,–,> 300 °C,–
"Cc1cc(Nc2cccc(C(=O)Nc3ccc(Nc4ccnc5ccc(N)cc45)cc3)c2)nc(N)n1 (as salt: hydrochloride) [RR3, 3-[(2-Amino-6-methyl-4-pyrimidinyl)amino]-N-{4-[(6-amino-4-quinolinyl)amino]phenyl}benzamide dihydrochloride]",–,–,280 to 284 °C,–
